In patent publication US20120225889A1, “USE OF MACROCYCLIC LACTONE DERIVATIVES FOR THE TREATMENT OF INFLAMMATORY DISORDERS” (PIRAMAL LIFE SCIENCES LIMITED, priority 2010, published 2012):
pIC50: −log10 of the molar value.

Legend:
cMyc = test: Gene expression profile using RTQ-PCR: cMyc; format: cell-based, human; settings: 3 μM
Protocol: The effect of the compound of example 7 was measured in stimulated untreated cells from the monocytic cell line (THP-1), human monocytes and synovial cells from rheumatoid arthritis patient. The effect of the compound in the THP-1 cell line was measured in terms of gene expression and was expressed as fold changes as compared to the cell stimulated control with no drug treatment.
THP-1 cells, human monocytes and synovial cells were treated with compound of example 7 or vehicle (0.5% DMSO). Total RNA isolation using a commercial RNA extraction kit (Qiagen Corporation, Germany) The first-strand cDNA was synthesized from total RNA using first strand cDNA synthesis kit from Invitrogen Corporation (California, USA). This was followed by real time quantitative polymerase chain reaction (RTQ PCR) using gene specific primers and standard thermal program of initial denaturation at 95° C. for 5 min and cycles of 95° C. for 10 seconds, followed by 60° C. for 30 seconds (Realplex PCR machine from Eppendorf, Germany). Quantitative measurement of products made during PCR cycles was normalized against a housekeeping gene (Actin) and was used to measure the gene expression as fold changes as compared to respective control.

p38 MAPK = molecular target: T1, p38 MAPK (Homo sapiens, UniProt Q16539); test: p38 MAPK assay in anisomycin stimulated Jurkat T-cells (Western blot); format: cell-based; settings: 3 μM, phospho-p38 Western blot
T1 construct: endogenous in cells; host or cells: Jurkat T-cells (ATCC TIB-152, clone E6-1)
T1 sequence (Q16539 whole entry): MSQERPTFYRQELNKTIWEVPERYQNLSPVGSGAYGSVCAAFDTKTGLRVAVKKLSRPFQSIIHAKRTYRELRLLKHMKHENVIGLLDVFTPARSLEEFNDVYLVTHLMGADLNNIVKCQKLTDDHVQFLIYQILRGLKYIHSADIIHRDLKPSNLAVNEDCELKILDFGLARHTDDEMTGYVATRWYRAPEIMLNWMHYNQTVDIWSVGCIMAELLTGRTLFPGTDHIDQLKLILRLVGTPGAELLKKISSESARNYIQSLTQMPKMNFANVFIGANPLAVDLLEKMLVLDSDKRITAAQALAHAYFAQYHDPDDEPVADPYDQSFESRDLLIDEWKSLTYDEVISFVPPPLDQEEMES
Protocol: The method for identifying inhibitors of p38 MAPK was designed as in reference, Journal of Lipid Research, 40, 1911-1919, (1999), the disclosure of which is incorporated by reference for the teaching of the assay.
Human Jurkat T-cells (ATCC number: TIB-152, clone E6-1, USA) were cultured in culture medium (RPMI 1640 culture medium supplemented with 10% FBS, 100 U/mL penicillin and 100 μg/mL streptomycin) at 37° C., 5% CO2. Culture medium was changed every 2-3 days and always a day prior to the experiment. On the day of the experiment, Jurkat cells were pre-treated with vehicle or test compound at 3 μM, 10 times the IC50 value for IL-6 inhibition in human monocyte assay, for 1 h at 37° C. Subsequently, the cells were stimulated with anisomycin (10 μg/mL; Sigma, USA) for 30 min SB 203580 (1 PM; Sigma, USA) was used as a standard. The sample preparation of the test compound, anisomycin and SB 203580 is as follows: a stock solution (20 mM) of the test compound was prepared in DMSO. […]
Following the stimulation, cells were harvested, rapidly washed with ice-cold PBS and lysed with cold Cell Lytic buffer (Sigma, USA) supplemented with complete protease inhibitor cocktail (Roche, USA) and sodium orthovanadate (Sigma, USA). […] Aliquots of the resulting extracts were analyzed for their protein content using the Coomassie Plus Protein Assay Reagent (Pierce, USA) as per manufacturer's instructions. […]

TNF-α = test: Human monocyte assay (LPS-induced): TNF-α; format: cell-based; settings: LPS stimulated human monocytes, 5 h
Text: The assay was designed as in reference, Physiological Research, 52, 593-598, (2003), the disclosure of which is incorporated by reference for the teaching of the assay.
The objective of the assay is to determine whether compounds of the present invention—mediated inhibition of LPS-induced cytokines from monocytic THP-1 cell line translates to physiologically relevant human cells. Accordingly, the effect of compounds of the present invention on LPS—induced cytokine production from freshly isolated human monocytes was ascertained.
Peripheral blood was collected from healthy donors into potassium EDTA vacutainer tubes (BD Biosciences, USA). hPBMCs were isolated using density gradient separation (Histopaque-1077; Sigma, USA) and suspended in assay medium which is RPMI culture medium (Sigma, USA) containing 10% heat inactivated FBS (JRH Biosciences, Australia), 100 U/mL penicillin (Sigma, USA) and […] streptomycin (Sigma, USA). Monocytes in the hPBMCs were counted using a Coulter Counter following which the cells were resuspended at 2×10^5 monocytes/mL of assay medium. A cell suspension containing 2×10^4 monocytes was aliquoted per well of a 96-well plate (Nunc, USA). Subsequently, the hPBMCs were incubated for 4-5 h at 37° C., 5% CO2. […] The IC50 values were calculated by a nonlinear regression method using Graph Pad software (Prism 3.03).

## C/C=C/C(O)C(C)/C=C/C(=N\O)C(C)C(O)C(C)C1OC(=O)/C(OC)=C/C(C)=C/C(C)C(O)C(CC)C(O)C(C)C/C(C)=C/C=C/C1OC (centres unmarked) [Compound of example 7, (3Z,5E,13E,15E)-18-((5Z,6E,10E)-3,9-Dihydroxy-5-(hydroxymino)-4,8-dimethyldodeca-6,10-dien-2-yl)-9-ethyl-8,10-dihydroxy-3,17-dimethoxy-5,7,11,13-tetramethyl oxacyclooctadeca-3,5,13,15-tetraen-2-one]
cMyc; Human monocytes, 3 h, ± SE, N = 3
  cMyc gene expression: −1.9 + 1.7 log fold change
cMyc; Synovial cells, 12 h, N = 1
  cMyc gene expression: −0.5 log fold change
cMyc; THP-1 cells, 12 h, ± SE, N = 3
  cMyc gene expression: −1.1 log fold change
p38 MAPK
  inhibition of p38 MAP kinase: did not inhibit
TNF-α
  pIC50: 5.00
